Laboratory results from patent US20230085307A1, “PYRIDAZINONE COMPOUND AND HERBICIDE” (NISSAN CHEMICAL CORPORATION, priority 2019, published 2023).

What was measured:
redroot pigweed = experiment: Test Example 4: herbicidal effect by soil treatment (Table 19, symbol N); format: in vivo, redroot pigweed (Amaranthus retroflexus); settings: for herbicidal effect rating, N: redroot pigweed: 320 g/ha
Procedure, shortened: (§1)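 Pre-emergence style soil spray: seeds under ~1.5 cm sterilized diluvial soil received a uniform coat of emulsion diluted to the predetermined herbicide amount. Greenhouse 25–30° C; readout at week three on previously defined criteria.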

late watergrass [1] = experiment: Test Example 2: herbicidal activity, application during weed generation under submerged conditions (Table 17, symbol A); format: in vivo, late watergrass (Echinochloa oryzicola); settings: AAH 320 g/ha; application during weed generation, submerged conditions
Procedure, shortened: (§2)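 Wagner pot, alluvial soil, 4 cm flood; mixed sowing of all species; greenhouse 25° C.–30° C. Emulsifiable formulation, water-diluted to predetermined dose, applied to paddy water at 1–2 leaf stage. Effect rated at 3 wk using the earlier test's scoring criteria.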

Italian ryegrass = experiment: Test Example 4: herbicidal effect by soil treatment (Table 19, symbol K); format: in vivo, Italian ryegrass (Lolium multiflorum); settings: for herbicidal effect rating, K: Italian ryegrass: 320 g/ha
Procedure, shortened: as §1

blackgrass = experiment: Test Example 5: herbicidal effect by foliage application, plastic box (Table 20, symbol J); format: in vivo, blackgrass (Alopecurus myosuroides); settings: foliage application
Procedure, shortened: (§3)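 Plants were sown into sterilized diluvial soil under about 1.5 cm cover and kept in a greenhouse at 25° C. to 30° C. Fourteen days on, foliage received an even spray of the diluted emulsion. Herbicidal or crop effect was judged three weeks afterwards.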

late watergrass [2] = experiment: Test Example 1: herbicidal activity, application before weed generation under submerged conditions (Table 16, symbol A); format: in vivo, late watergrass (Echinochloa oryzicola); settings: 320 g/ha applied herbicide
Procedure, shortened: (§4)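 Emulsion formulation, water-diluted to set dose, was put onto the flooded surface (4 cm depth, alluvial soil) the same day weeds were sown and 2.5-leaf rice transplanted. After 3 weeks at 25-30 °C under glass, each species was rated 0 (≤5% kill) to 5 (≥90% kill).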

persian speedwell = experiment: Test Example 5: herbicidal effect by foliage application, plastic box (Table 20, symbol R); format: in vivo, Persian speedwell (Veronica persica); settings: foliage application
Procedure, shortened: as §3

false cleavers = experiment: Test Example 4: herbicidal effect by soil treatment (Table 19, symbol Q); format: in vivo, false cleavers (Galium spurium); settings: for herbicidal effect rating, Q: false cleavers: 320 g/ha
Procedure, shortened: as §1

windgrass = experiment: Test Example 4: herbicidal effect by soil treatment (Table 19, symbol L); format: in vivo, windgrass (Apera spica-venti); settings: for herbicidal effect rating, L: windgrass: 320 g/ha
Procedure, shortened: as §1

Japanese bulrush = experiment: Test Example 1: herbicidal activity, application before weed generation under submerged conditions (Table 16, symbol B); format: in vivo, Japanese bulrush (Schoenoplectus juncoides); settings: 320 g/ha applied herbicide
Procedure, shortened: as §4

oval-leafed pondweed = experiment: Test Example 2: herbicidal activity, application during weed generation under submerged conditions (Table 17, symbol C); format: in vivo, oval-leafed pondweed (Monochoria vaginalis); settings: AAH 320 g/ha; application during weed generation, submerged conditions
Procedure, shortened: as §2

southern crabgrass = experiment: Test Example 5: herbicidal effect by foliage application, plastic box (Table 20, symbol F); format: in vivo, southern crabgrass (Digitaria ciliaris); settings: foliage application
Procedure, shortened: as §3

rice flat sedge = experiment: Test Example 3: herbicidal effect by foliage application, Wagner pot (Table 18, symbol E); format: in vivo, rice flat sedge (Cyperus iria); settings: for herbicidal effect on E (rice flat sedge), rating 0-5: 320 g/ha; for herbicidal effect on E: rice flat sedge: amount of applied herbicide 320 g/ha
Procedure, shortened: (§5)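 Plants were sown in alluvial soil held under 0.1–0.5 cm standing water and grown 14 days in a greenhouse at 25–30 °C. An emulsifiable formulation, water-diluted to the set dose, was then sprayed onto the foliage, and effects were scored three weeks later using previously defined criteria.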

Chinese sprangletop = experiment: Test Example 3: herbicidal effect by foliage application, Wagner pot (Table 18, symbol D); format: in vivo, chinese sprangletop (Leptochloa chinensis); settings: for herbicidal effect on D (Chinese sprangletop), rating 0-5: 320 g/ha; for herbicidal effect on D: Chinese sprangletop: amount of applied herbicide 320 g/ha
Procedure, shortened: as §5

wild oat = experiment: Test Example 5: herbicidal effect by foliage application, plastic box (Table 20, symbol I); format: in vivo, wild oat (Avena fatua); settings: foliage application
Procedure, shortened: as §3

barnyard grass [3] = experiment: Test Example 3: herbicidal effect by foliage application, Wagner pot (Table 18, symbol H); format: in vivo, barnyard grass (Echinochloa crus-galli); settings: for herbicidal effect on H (barnyard grass), rating 0-5: 320 g/ha; for herbicidal effect on H: barnyard grass: amount of applied herbicide 320 g/ha
Procedure, shortened: as §5

green foxtail = experiment: Test Example 5: herbicidal effect by foliage application, plastic box (Table 20, symbol G); format: in vivo, green foxtail (Setaria viridis); settings: foliage application
Procedure, shortened: as §3

barnyard grass [4] = experiment: Test Example 5: herbicidal effect by foliage application, plastic box (Table 20, symbol H); format: in vivo, barnyard grass (Echinochloa crus-galli); settings: foliage application
Procedure, shortened: as §3

[5] = 320 g/ha, 3 weeks after application
[6] = 320 g/ha, evaluated three weeks after application
[7] = amount of applied herbicide 320 g/ha
[8] = AAH 320 g/ha, evaluated three weeks after application

| SMILES | herbicidal effect rating, N: redroot pigweed (redroot pigweed) | herbicidal effect rating, A: late watergrass (late watergrass [1]) | herbicidal effect rating, K: Italian ryegrass (Italian ryegrass) | Herbicidal effect on A: late watergrass (grade 0-5) (late watergrass [2]) | herbicidal effect rating, Q: false cleavers (false cleavers) | herbicidal effect rating, L: windgrass (windgrass) | Herbicidal effect on B: Japanese bulrush (grade 0-5) (Japanese bulrush) | herbicidal effect rating, C: oval-leafed pondweed (oval-leafed pondweed) | herbicidal effect on E (rice flat sedge), rating 0-5 (rice flat sedge) | herbicidal effect on D (Chinese sprangletop), rating 0-5 (Chinese sprangletop) | herbicidal effect on H (barnyard grass), rating 0-5 (barnyard grass [3]) | herbicidal effect on E: rice flat sedge (rice flat sedge) | herbicidal effect on D: Chinese sprangletop (Chinese sprangletop) | herbicidal effect on H: barnyard grass (barnyard grass [3]) | further results |
| --- | --- | --- | --- | --- | --- | --- | --- | --- | --- | --- | --- | --- | --- | --- | --- |
| Cc1nn(C)c(=O)c(-c2c(-c3ccc(OC(C)C)cc3)sc3ccc(F)cc23)c1O [2-034] | 5 (Herbicidal rate of 90% or more (almost completely withered)) | 1 (Herbicidal rate of 5% or more and less than 20%) | 1 (Herbicidal rate of 5% or more and less than 20%) | 3 (Herbicidal rate of 40% or more and less than 70%) | 0 (Herbicidal rate of 5% or less (almost no effect)) | 0 (Herbicidal rate of 5% or less (almost no effect)) | 4 (Herbicidal rate of 70% or more and less than 90%) | 3 (Herbicidal rate of 40% or more and less than 70%) | 5 (Herbicidal rate of 90% or more (almost completely withered)) | 0 (Herbicidal rate of 5% or less (almost no effect)) | 5 (Herbicidal rate of 90% or more (almost completely withered)) | – | – | – | effect on blackgrass (J) (blackgrass; [5]): 5 (Herbicidal rate of 90% or more (almost completely withered)); effect on persian speedwell (R) (persian speedwell; [5]): 5 (Herbicidal rate of 90% or more (almost completely withered)); effect on southern crabgrass (F) (southern crabgrass; [5]): 5 (Herbicidal rate of 90% or more (almost completely withered)); effect on wild oat (I) (wild oat; [5]): 3 (Herbicidal rate of 40% or more and less than 70%); effect on green foxtail (G) (green foxtail; [5]): 5 (Herbicidal rate of 90% or more (almost completely withered)); effect on barnyard grass (H) (barnyard grass [4]; [5]): 5 (Herbicidal rate of 90% or more (almost completely withered)) |
| CCCC(=O)Oc1c(C)nn(C)c(=O)c1-c1c(-c2ccc(F)cc2OCC)sc2ccc(F)cc12 [2-085] | 5 (Herbicidal rate of 90% or more (almost completely withered)) | 2 (Herbicidal rate of 20% or more and less than 40%) | 0 (Herbicidal rate of 5% or less (almost no effect)) | 4 (Herbicidal rate of 70% or more and less than 90%) | 4 (Herbicidal rate of 70% or more and less than 90%) | 0 (Herbicidal rate of 5% or less (almost no effect)) | 3 (Herbicidal rate of 40% or more and less than 70%) | 3 (Herbicidal rate of 40% or more and less than 70%) | 4 (Herbicidal rate of 70% or more and less than 90%) | 0 (Herbicidal rate of 5% or less (almost no effect)) | 5 (Herbicidal rate of 90% or more (almost completely withered)) | – | – | – | herbicidal effect on J: blackgrass (blackgrass; [6]): 1 (Herbicidal rate of 5% or more and less than 20%); herbicidal effect on R: persian speedwell (persian speedwell; [6]): 4 (Herbicidal rate of 70% or more and less than 90%); herbicidal effect on F: southern crabgrass (southern crabgrass; [6]): 5 (Herbicidal rate of 90% or more (almost completely withered)); herbicidal effect on I: wild oat (wild oat; [6]): 3 (Herbicidal rate of 40% or more and less than 70%); herbicidal effect on G: green foxtail (green foxtail; [6]): 3 (Herbicidal rate of 40% or more and less than 70%); herbicidal effect on H: barnyard grass (barnyard grass [4]; [6]): 4 (Herbicidal rate of 70% or more and less than 90%) |
| Cc1nn(C)c(=O)c(-c2c(-c3ccc(Br)cc3)sc3ccc(F)cc23)c1O [2-205] | – | 2 (Herbicidal rate of 20% or more and less than 40%) | – | 4 (Herbicidal rate of 70% or more and less than 90%) | – | – | 3 (Herbicidal rate of 40% or more and less than 70%) | 2 (Herbicidal rate of 20% or more and less than 40%) | – | – | – | 5 (Herbicidal rate of 90% or more (almost completely withered)) | 4 (Herbicidal rate of 70% or more and less than 90%) | 5 (Herbicidal rate of 90% or more (almost completely withered)) | N: redroot pigweed, herbicidal effect rating (redroot pigweed; [7]): 5 (Herbicidal rate of 90% or more (almost completely withered)); K: Italian ryegrass, herbicidal effect rating (Italian ryegrass; [7]): 5 (Herbicidal rate of 90% or more (almost completely withered)); herbicidal effect on J: blackgrass (criteria 0-5) (blackgrass; [6]): 4 (Herbicidal rate of 70% or more and less than 90%); herbicidal effect on R: persian speedwell (criteria 0-5) (persian speedwell; [6]): 5 (Herbicidal rate of 90% or more (almost completely withered)); Q: false cleavers, herbicidal effect rating (false cleavers; [7]): 1 (Herbicidal rate of 5% or more and less than 20%); L: windgrass, herbicidal effect rating (windgrass; [7]): 0 (Herbicidal rate of 5% or less (almost no effect)); herbicidal effect on F: southern crabgrass (criteria 0-5) (southern crabgrass; [6]): 5 (Herbicidal rate of 90% or more (almost completely withered)); herbicidal effect on I: wild oat (criteria 0-5) (wild oat; [6]): 4 (Herbicidal rate of 70% or more and less than 90%); herbicidal effect on G: green foxtail (criteria 0-5) (green foxtail; [6]): 5 (Herbicidal rate of 90% or more (almost completely withered)); herbicidal effect on H: barnyard grass (criteria 0-5) (barnyard grass [4]; [6]): 5 (Herbicidal rate of 90% or more (almost completely withered)) |
| COCC(=O)Oc1c(C)nn(C)c(=O)c1-c1c(-c2ccc(OC(F)F)cc2)sc2ccc(F)cc12 [2-283] | – | 5 (Herbicidal rate of 90% or more (almost completely withered)) | – | 3 (Herbicidal rate of 40% or more and less than 70%) | – | – | 5 (Herbicidal rate of 90% or more (almost completely withered)) | 4 (Herbicidal rate of 70% or more and less than 90%) | – | – | – | 5 (Herbicidal rate of 90% or more (almost completely withered)) | 4 (Herbicidal rate of 70% or more and less than 90%) | 5 (Herbicidal rate of 90% or more (almost completely withered)) | herbicidal effect on N: redroot pigweed (redroot pigweed; [7]): 5 (Herbicidal rate of 90% or more (almost completely withered)); herbicidal effect on K: Italian ryegrass (Italian ryegrass; [7]): 5 (Herbicidal rate of 90% or more (almost completely withered)); J: blackgrass, herbicidal effect (criteria 0-5) (blackgrass; [8]): 4 (Herbicidal rate of 70% or more and less than 90%); R: persian speedwell, herbicidal effect (criteria 0-5) (persian speedwell; [8]): 5 (Herbicidal rate of 90% or more (almost completely withered)); herbicidal effect on Q: false cleavers (false cleavers; [7]): 0 (Herbicidal rate of 5% or less (almost no effect)); herbicidal effect on L: windgrass (windgrass; [7]): 4 (Herbicidal rate of 70% or more and less than 90%); F: southern crabgrass, herbicidal effect (criteria 0-5) (southern crabgrass; [8]): 5 (Herbicidal rate of 90% or more (almost completely withered)); I: wild oat, herbicidal effect (criteria 0-5) (wild oat; [8]): 3 (Herbicidal rate of 40% or more and less than 70%); G: green foxtail, herbicidal effect (criteria 0-5) (green foxtail; [8]): 5 (Herbicidal rate of 90% or more (almost completely withered)); H: barnyard grass, herbicidal effect (criteria 0-5) (barnyard grass [4]; [8]): 5 (Herbicidal rate of 90% or more (almost completely withered)) |
